Results reported in US10280209B2 (YISSUM RESEARCH DEVELOPMENT COMPANY OF THE HEBREW …, priority 2013, dated 2019).
“And” between values parts separate entries of the source, which are not always exact repeats. Equal entries are not always repeated. Square brackets hold non-standard residues; d marks the D form. Ends that are not written are not given here.

Columns and labels:
[1] = system: experimental autoimmune encephalitis; experiment: Experimental autoimmune encephalitis (EAE) model; format: in vivo, mouse
[2] = target: T1, staphylococcal enterotoxin B (SEB) (Staphylococcus aureus, UniProt P01552); details: previously shown (3); cited from earlier work
[3] = target: T1, staphylococcal enterotoxin B (SEB); details: previously shown (3); cited from earlier work; remark: listed apart in the source
human PBMC = experiment: Cytokine induction by peptides alone in human PBMC (ELISA); format: cell-based; details: 10 μg/ml peptide, no inducer
Protocol: (§1) Peripheral blood mononuclear cells (PBMC) from healthy human donors were separated on Ficoll Paque (Amersham), washed twice with 50 ml of RPMI 1640 medium, re-suspended at a density of 4×10^6 cells/ml and cultured in this medium supplemented with 2% fetal calf serum, 2 mM glutamine, 10 mM Minimum Essential Medium (MEM) nonspecific amino acids, […], 10 mM Hepes pH 7.2, 5×10^−5 M 2-mercaptoethanol, 100 u/ml penicillin, 100 μg/ml streptomycin and 5 μg/ml nystatin. Mouse anti-human monoclonal antibodies αCD3 (clone UCHT1; 100 ng/ml) and αCD28 (clone 37407; 2.5 μg/ml) (both from R&D Systems) were used as inducers. Cytokines in culture medium were determined with Quantikine ELISA kits (R&D Systems) according to the manufacturer's instructions.

human IgG = experiment: Surface plasmon resonance, human IgG control on immobilized peptide; format: binding; details: SPR, studied in parallel
Protocol: Peptides were diluted to 10-200 μg/ml in 10 mM Sodium (Na) acetate pH 4.0 and immobilized on a CM5 sensor chip (BIAcore) using an amine-thiol coupling kit (BIAcore), respectively; the immobilized amounts were 500-1,000 resonance units. Analytes were injected at 20 μl/min in 25 mM HEPES pH 7.4, 150 mM NaCl, 3.4 mM EDTA, and 0.005% surfactant P20 under conditions showing no mass transport limitation. Regeneration was with 50 mM phosphoric acid. Kinetic analyses were performed at 25° C. in a BIAcore 3000 instrument, deducting the signal from the control flow cell from the binding signal. Analyte curves were run in duplicate; representative results are shown. Human IgG (Jackson Laboratories) served as control. Fusion of the IgG1-Fc domain to the 152-amino-acid extracellular domain of CD28 was performed as described below.

signaling through CD3 = experiment: αCD3-induced cytokine expression in human PBMC (ELISA); format: cell-based; details: αCD3 alone, 10 μg/ml peptide
Protocol: as §1

CD28 = target: T2, CD28 (Homo sapiens, UniProt P10747); experiment: αCD3/αCD28-induced cytokine expression in human PBMC (ELISA); format: cell-based; details: αCD3/αCD28, 10 μg/ml peptide
T2 construct: endogenous in cells; host or cells: human PBMC
Protocol: as §1

adjuvant arthritis = experiment: Adjuvant arthritis model; details: rat, in vivo
[4] = system: collagen-induced arthritis; experiment: Collagen-induced arthritis model; format: in vivo, mouse; details: mice
[5] = FIG. 11A, daily from day 1, solumedrol 20 mg/kg, p2TB 50 μg, pe12-pal 100 μg
[6] = independent experiment FIG. 11B-D, daily, solumedrol 20 mg/kg, p2TB 50 μg, p2TB-pal 50 μg, pe12-pal 100 μg

Compound | reduction of cumulative clinical score [1, 5] [%] | reduction of cumulative clinical score [1, 6] [%] | Th1 cytokine response induced by peptide alone (human PBMC) | affinity for IgG (human IgG) | αCD3-mediated induction of IFN-γ (signaling through CD3) | αCD3-mediated induction of IL2 (signaling through CD3) | αCD3-mediated induction of TNF-α (signaling through CD3) | signaling through CD28 (IFN-γ, IL2, TNF-α secretion) (CD28) | also measured
C[C@H]1C[C@@H]2[C@H]([C@@H](O)C[C@@]3(C)[C@H]2CC[C@]3(O)C(=O)COC(=O)CCC(=O)O)[C@@]2(C)C=CC(=O)C=C12 [solumedrol, reference compound] | 50 | 50 | – | – | – | – | – | – | –
(D-A)ASMDYPVL(D-A) ([dA]ASMDYPVL[dA]) | – | – | – | – | – | – | – | – | ability to bind directly to SEB after scrambling of p2TA sequence [2]: strongly impair; ability to protect mice from lethal SEB challenge after scrambling of p2TA sequence [3]: strongly impair
(D-A)PAVVLASS(D-A) ([dA]PAVVLASS[dA]) [p2TB, CTLA-4 homodimer interface peptide abutted by D-Ala at both termini] | – | – | do not induce a significant Th1 cytokine response | none of the peptides showed affinity for IgG | did not inhibit | did not inhibit | did not inhibit | inhibit signaling through CD28 | –
(D-A)SHFTHNRHGHST(D-A) ([dA]SHFTHNRHGHST[dA]) [pe12] | – | – | do not induce a significant Th1 cytokine response | none of the peptides showed affinity for IgG | did not inhibit | did not inhibit | did not inhibit | inhibit signaling through CD28 | disease symptoms after termination of therapy on day 15 (adjuvant arthritis): leveled off and even showed a progressive further decline; cumulative reduction of disease symptoms (adjuvant arthritis; iv): 41%; disease symptoms during treatment, up to day 15 (adjuvant arthritis; iv): did not exhibit inhibition of symptoms
(palmitoyl-lysine)PAVVLASS(D-A) (PAVVLASS[dA]; not fully specified (N-terminus)) [p2TB-pal] | – | – | – | – | – | – | – | – | reduction of cumulative clinical score ([1]; mouse, in vivo): 41% and 31% and 38%; reduction of cumulative disease symptoms ([4]; 100 μg once every 3 days starting on day 25): 34%
(palmitoyl-lysine)SHFTHNRHGHST(D-A) (SHFTHNRHGHST[dA]; not fully specified (N-terminus)) [pe12-pal] | 63 | 42 | – | – | – | – | – | – | reduction of cumulative clinical score ([1]; independent experiment FIG. 11B-D, once every 3 days, p2TB 100 μg, p2TB-pal 100 μg, pe12-pal 150 μg): 48%; amelioration of disease symptoms ([4]; 150 μg once every 3 days from disease onset): 31%; amelioration of disease symptoms ([4]; 200 μg once every 5 days from disease onset): 27%
